Assay results from the NIST ThermoML archive (doi:10.1021/acs.jced.8b00157).
“And” between values parts separate entries of the source, which are not always exact repeats. Identical values can stand only once.

Assay: an = ratio of the nth substance listed
Conditions: 100 kPa, Liquid, Buoyancy - hydrostatic balance, a2 = 1.3

[F][Al]([F])[F] [aluminum fluoride] + [F-].[K+]
Conditions	mass density
1013.8 K	1821 kg/m3
1014 K	1822 kg/m3
1014.2 K	1821 kg/m3
1014.4 K	1822 kg/m3
1014.5 K	1822 kg/m3
1014.9 K	1821 kg/m3
1015.1 K	1821 kg/m3
1015.2 K	1820 kg/m3 and 1821 kg/m3
1015.3 K	1822 kg/m3
1015.5 K	1821 kg/m3
1015.7 K	1820 kg/m3
1016.1 K	1819 kg/m3
1016.3 K	1820 kg/m3
1016.5 K	1819 kg/m3
1016.7 K	1819 kg/m3
1016.8 K	1819 kg/m3
1017 K	1818 kg/m3
1017.4 K	1818 kg/m3
1017.8 K	1819 kg/m3
1018 K	1818 kg/m3
1018.1 K	1818 kg/m3
1018.2 K	1819 kg/m3
1018.4 K	1819 kg/m3 and 1816 kg/m3
1018.5 K	1818 kg/m3
1018.6 K	1817 kg/m3
1018.9 K	1816 kg/m3
1019.5 K	1818 kg/m3
1019.7 K	1816 kg/m3
1019.8 K	1817 kg/m3
1019.9 K	1817 kg/m3 and 1815 kg/m3 and 1816 kg/m3
1020.3 K	1816 kg/m3
1020.5 K	1815 kg/m3
1020.8 K	1815 kg/m3
1021 K	1816 kg/m3
1021.1 K	1816 kg/m3
1021.2 K	1814 kg/m3
1021.4 K	1815 kg/m3
1021.7 K	1816 kg/m3 and 1815 kg/m3
1022 K	1813 kg/m3
1022.1 K	1815 kg/m3
1022.6 K	1815 kg/m3
1022.8 K	1813 kg/m3
1022.9 K	1812 kg/m3
1023 K	1814 kg/m3
1023.1 K	1814 kg/m3
1023.2 K	1814 kg/m3
1023.4 K	1813 kg/m3
1023.7 K	1812 kg/m3
1024 K	1813 kg/m3
1024.1 K	1812 kg/m3
1024.4 K	1812 kg/m3
1024.9 K	1813 kg/m3 and 1811 kg/m3
1025 K	1811 kg/m3
1025.2 K	1813 kg/m3
1025.6 K	1810 kg/m3
1025.7 K	1810 kg/m3
1025.8 K	1812 kg/m3
1026 K	1812 kg/m3
1026.2 K	1812 kg/m3
1026.4 K	1810 kg/m3
1026.5 K	1809 kg/m3
1026.6 K	1810 kg/m3
1026.7 K	1811 kg/m3
1026.9 K	1809 kg/m3
1027.1 K	1810 kg/m3
1027.2 K	1808 kg/m3
1027.3 K	1811 kg/m3
1027.4 K	1808 kg/m3
1027.5 K	1809 kg/m3
1027.9 K	1809 kg/m3
1028 K	1809 kg/m3
1028.1 K	1809 kg/m3
1028.3 K	1807 kg/m3
1028.6 K	1807 kg/m3
1028.7 K	1807 kg/m3
1028.9 K	1808 kg/m3
1029.1 K	1806 kg/m3
1029.3 K	1807 kg/m3 and 1808 kg/m3
1029.4 K	1807 kg/m3
1029.8 K	1806 kg/m3
1030.3 K	1806 kg/m3
1030.6 K	1807 kg/m3 and 1806 kg/m3
1030.9 K	1805 kg/m3
1031.1 K	1806 kg/m3 and 1804 kg/m3
1031.5 K	1804 kg/m3
1031.7 K	1805 kg/m3 and 1806 kg/m3
1031.8 K	1805 kg/m3
1032.3 K	1803 kg/m3
1032.5 K	1805 kg/m3
1032.6 K	1803 kg/m3
1032.7 K	1804 kg/m3
1032.9 K	1804 kg/m3
1033.1 K	1803 kg/m3
1033.3 K	1803 kg/m3 and 1804 kg/m3
1033.5 K	1803 kg/m3
1033.7 K	1801 kg/m3 and 1802 kg/m3
1033.8 K	1803 kg/m3
1033.9 K	1804 kg/m3
1034.1 K	1802 kg/m3
1034.5 K	1801 kg/m3
1034.8 K	1802 kg/m3 and 1801 kg/m3
1034.9 K	1802 kg/m3
1035.3 K	1801 kg/m3 and 1800 kg/m3
1035.6 K	1800 kg/m3
1035.7 K	1799 kg/m3
1036.4 K	1799 kg/m3
1036.6 K	1801 kg/m3 and 1798 kg/m3
1037 K	1799 kg/m3
1037.1 K	1801 kg/m3
1037.5 K	1797 kg/m3
1037.7 K	1798 kg/m3
1038.1 K	1800 kg/m3 and 1797 kg/m3
1038.2 K	1799 kg/m3
1038.4 K	1796 kg/m3
1038.5 K	1799 kg/m3
1038.6 K	1799 kg/m3
1038.9 K	1799 kg/m3
1039 K	1796 kg/m3
